Measurements: PMC7316160 (Drug testing and analysis, 2018)
Values joined by “and” are separate entries in the source; they are usually repeats but may differ in a detail not shown here. Identical values can stand only once. Like-named read-outs stand apart in the source and are kept apart here.

How the values were obtained:
[1] = LC-MS/MS quantification in blood/serum of human intoxication cases; type: in vivo
[2] = target: T1, dopamine transporter (DAT) (Rattus norvegicus, UniProt P23977); assay: Inhibition of [^3H]dopamine uptake at DAT in rat brain synaptosomes; type: biochemical; conditions: for DAT/SERT ratio (uptake inhibition): [DAT IC50]^−1/[SERT IC50]^−1, higher value indicates greater DAT selectivity
T1 sequence (P23977 whole entry): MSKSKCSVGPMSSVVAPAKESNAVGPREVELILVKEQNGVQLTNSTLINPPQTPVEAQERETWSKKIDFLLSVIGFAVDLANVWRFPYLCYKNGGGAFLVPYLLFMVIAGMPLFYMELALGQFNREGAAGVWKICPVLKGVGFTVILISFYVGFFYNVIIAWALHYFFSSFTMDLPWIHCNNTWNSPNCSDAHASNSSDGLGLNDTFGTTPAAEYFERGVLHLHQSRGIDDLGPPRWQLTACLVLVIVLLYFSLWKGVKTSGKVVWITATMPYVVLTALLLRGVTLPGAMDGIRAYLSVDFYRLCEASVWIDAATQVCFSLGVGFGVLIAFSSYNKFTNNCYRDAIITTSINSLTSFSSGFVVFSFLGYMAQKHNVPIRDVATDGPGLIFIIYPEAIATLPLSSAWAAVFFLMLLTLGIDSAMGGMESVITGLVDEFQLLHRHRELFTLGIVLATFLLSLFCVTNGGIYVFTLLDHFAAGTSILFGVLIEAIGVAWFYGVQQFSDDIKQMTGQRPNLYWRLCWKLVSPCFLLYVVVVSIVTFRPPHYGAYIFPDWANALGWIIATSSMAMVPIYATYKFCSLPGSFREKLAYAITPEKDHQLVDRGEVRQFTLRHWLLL

[3] = target: T1, dopamine transporter (DAT); assay: Release of [^3H]MPP+ via DAT from rat brain synaptosomes; type: biochemical; conditions: for Release of [^3H]MPP+ via DAT EC50: rat brain synaptosomes, mean ± SD, n=3
[4] = target: T2, norepinephrine transporter (NET) (Rattus norvegicus, UniProt Q63380); assay: Release of [^3H]MPP+ via NET from rat brain synaptosomes; type: biochemical; conditions: for Release of [^3H]MPP+ via NET EC50: rat brain synaptosomes, mean ± SD, n=3
T2 sequence (Q63380 1-617): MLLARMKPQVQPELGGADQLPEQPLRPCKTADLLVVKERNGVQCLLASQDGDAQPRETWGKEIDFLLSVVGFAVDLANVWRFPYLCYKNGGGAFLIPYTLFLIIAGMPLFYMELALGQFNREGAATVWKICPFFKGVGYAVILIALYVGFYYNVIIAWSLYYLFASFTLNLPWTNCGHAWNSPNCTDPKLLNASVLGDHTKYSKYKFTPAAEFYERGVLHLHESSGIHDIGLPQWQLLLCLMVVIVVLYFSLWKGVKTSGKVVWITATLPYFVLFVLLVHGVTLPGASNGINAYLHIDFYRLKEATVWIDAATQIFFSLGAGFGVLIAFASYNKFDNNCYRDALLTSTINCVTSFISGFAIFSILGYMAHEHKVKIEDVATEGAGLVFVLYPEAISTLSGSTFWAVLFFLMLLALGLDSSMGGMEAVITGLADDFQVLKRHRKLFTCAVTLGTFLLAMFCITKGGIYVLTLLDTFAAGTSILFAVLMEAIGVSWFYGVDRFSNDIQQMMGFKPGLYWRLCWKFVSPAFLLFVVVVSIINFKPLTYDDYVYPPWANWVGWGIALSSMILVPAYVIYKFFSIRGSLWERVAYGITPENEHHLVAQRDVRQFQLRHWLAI

5-HT transporter (SERT) = 5-HT transporter (SERT) (Rattus norvegicus, UniProt P31652); assay: Release of [^3H]5-HT via SERT from rat brain synaptosomes; type: biochemical; conditions: for Emax: read-out: Release of [^3H]5-HT via SERT %Emax; for Release of [^3H]5-HT via SERT EC50: rat brain synaptosomes, mean ± SD, n=3
Chain of 5-HT transporter (SERT) (P31652 whole entry): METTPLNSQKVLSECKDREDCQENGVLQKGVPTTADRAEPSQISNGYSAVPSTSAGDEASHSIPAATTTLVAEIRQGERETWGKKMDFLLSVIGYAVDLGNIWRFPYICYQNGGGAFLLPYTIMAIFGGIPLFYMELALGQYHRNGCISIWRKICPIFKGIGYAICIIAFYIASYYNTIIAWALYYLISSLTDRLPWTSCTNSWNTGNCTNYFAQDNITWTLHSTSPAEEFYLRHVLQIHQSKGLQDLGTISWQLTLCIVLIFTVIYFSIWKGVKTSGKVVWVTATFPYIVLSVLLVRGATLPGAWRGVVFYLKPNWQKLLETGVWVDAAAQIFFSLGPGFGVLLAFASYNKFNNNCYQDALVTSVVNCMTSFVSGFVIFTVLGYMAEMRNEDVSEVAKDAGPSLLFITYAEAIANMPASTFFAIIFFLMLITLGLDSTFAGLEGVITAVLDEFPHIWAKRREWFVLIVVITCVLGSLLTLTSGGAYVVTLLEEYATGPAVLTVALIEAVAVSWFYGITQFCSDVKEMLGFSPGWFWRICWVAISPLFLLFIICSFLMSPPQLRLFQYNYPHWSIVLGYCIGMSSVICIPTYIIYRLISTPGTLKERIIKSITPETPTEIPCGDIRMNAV

[5] = target: T2, norepinephrine transporter (NET); assay: Inhibition of [^3H]norepinephrine uptake at NET in rat brain synaptosomes; type: biochemical; conditions: approximate value
[6] = Stability in whole blood on storage; type: physicochemical, human; conditions: for long-term stability, variation of initial concentration: 90 days; for Stability (% difference): whole blood, n=3
[7] = type: in vivo, human; conditions: for Potassium: reference 3.3 - 5.1; for aspartame aminotransferase: reference 10 - 40; for alanine aminotransferase: reference 12 - 78; for BUN: reference 15 - 39; for Sodium: reference 136 - 145; for pH: reference 7.35 - 7.45; for HCO3: reference 22 - 26; for pCO2: reference 35 - 45; for Glucose: reference 70 - 100; for pO2: reference 80 - 100; for serum creatinine: reference Male 0.8 - 1.3; for Hb: reference Male 13.2 - 18.0; for Hematocrit: reference Male 39.0 - 51.0; for creatine kinase: reference Male 39 - 308; for base excess: reference −2 - +2
[8] = Case 4, co-exposure alcohol, MDMA and N-ethylnorpentylone
[9] = Inhibition of [^3H]dopamine Uptake at DAT IC50, rat brain synaptosomes (caudate), mean ± SD, n=3

For `CNC(C)Cc1ccc2c(c1)OCO2` (stereo not drawn) [MDMA, 3,4-methylenedioxymethamphetamine], the serum concentration [1, 8] was 54 ng/mL.

For `CCCC(NC)C(=O)c1ccc2c(c1)OCO2` (stereo not drawn) [Pentylone, 1-(1,3-benzodioxol-5-yl)-2-(methylamino)pentan-1-one], the IC50 [2, 9] was 154 ± 11 nM, the “DAT/SERT ratio (uptake inhibition)” value [2] was 7.8 and the “Release of [^3H]MPP+ via DAT EC50” value [3] was “inactive”. For the same molecule, the “Release of [^3H]MPP+ via NET EC50” value [4] was “Inactive”, the EC50 (5-HT transporter (SERT)) was 476 ± 98 nM and the Emax (5-HT transporter (SERT)) was 54%.

With `CNC(C)C(=O)c1ccc2c(c1)OCO2` (stereo not drawn) [Methylone, 3,4-methylenedioxy-N-methylcathinone] the IC50 [2, 9] was 1390 ± 81 nM, the “DAT/SERT ratio (uptake inhibition)” value [2] was 0.83 and 0.8 and the IC50 ([2]; uptake inhibition at DAT IC50, rat brain synaptosomes, approximate value) was roughly 1000 nM. The IC50 [5] was roughly 1000 nM, the EC50 [3] was 178 ± 17 nM and the “DAT/SERT ratio (release)” value ([3]; [DAT EC50]^−1/[SERT EC50]^−1, higher value indicates greater DAT selectivity) was 1.9. The Emax ([3]; read-out: Release of [^3H]MPP+ via DAT %Emax) was 96%, the EC50 [4] was 81 ± 8 nM and the Emax ([4]; read-out: Release of [^3H]MPP+ via NET %Emax) was 94%. For the same molecule, the EC50 (5-HT transporter (SERT)) was 342 ± 20 nM and the Emax (5-HT transporter (SERT)) was 99%.

Molecule `CCO` [alcohol] has a serum concentration ([1]; Case 4) of 800000 ng/mL.

For `CCCC(NCC)C(=O)c1ccc2c(c1)OCO2` (stereo not drawn) [N-ethylnorpentylone, 1-(1,3-benzodioxol-5-yl)-2-(ethylamino)pentan-1-one], the IC50 [2, 9] was 37 ± 2 nM, the “DAT/SERT ratio (uptake inhibition)” value [2] was greater than 10 and the “Release of [^3H]MPP+ via DAT EC50” value [3] was “unable to evoke release”. The “Release of [^3H]MPP+ via DAT EC50” value ([3]; listed as N-EthylNorpentylone) was “inactive”, the “Release of [^3H]MPP+ via DAT EC50” value ([3]; listed as N-Ethylnorpentylone) was “no transporter releasing activity” and the “Release of [^3H]MPP+ via NET EC50” value [4] was “unable to evoke release”. For the same molecule, the “Release of [^3H]MPP+ via NET EC50” value ([4]; listed as N-EthylNorpentylone) was “inactive”, the “Release of [^3H]MPP+ via NET EC50” value ([4]; listed as N-Ethylnorpentylone) was “no transporter releasing activity” and the “Release of [^3H]5-HT via SERT EC50” value (5-HT transporter (SERT)) was “unable to evoke release”. For the same molecule, the “Release of [^3H]5-HT via SERT EC50” value (5-HT transporter (SERT); listed as N-EthylNorpentylone) was “inactive”, the “Release of [^3H]5-HT via SERT EC50” value (5-HT transporter (SERT); listed as N-Ethylnorpentylone) was “no transporter releasing activity” and the “long-term stability, variation of initial concentration” value (“long-term stability, variation” below) ([6]; fortified whole blood, both QC concentrations, 4 °C) was −3.5%. The “long-term stability, variation” value ([6]; fortified whole blood, both QC concentrations, −20 °C) was “+6.5%”, the “long-term stability, variation” value ([6]; post mortem blood sample, 4 °C) was −19.7% and the “long-term stability, variation” value ([6]; post mortem blood sample, −20 °C) was −5.5%. The “Stability (% difference)” value ([6]; High QC (400 ng/mL), 3 freeze-thaw cycles) was −3.0%, the “Stability (% difference)” value ([6]; High QC (400 ng/mL), 4 °C, 24h) was 7.1% and the “Stability (% difference)” value ([6]; High QC (400 ng/mL), 4 °C, 72h) was 5.9%. The “Stability (% difference)” value ([6]; High QC (400 ng/mL), −20 °C, 24h) was −3.3%, the “Stability (% difference)” value ([6]; High QC (400 ng/mL), −20 °C, 72h) was −2.9% and the “Stability (% difference)” value ([6]; Low QC (15 ng/mL), 3 freeze-thaw cycles) was −11.8%. The “Stability (% difference)” value ([6]; Low QC (15 ng/mL), 4 °C, 24h) was −2.4%, the “Stability (% difference)” value ([6]; Low QC (15 ng/mL), 4 °C, 72h) was −4.9% and the “Stability (% difference)” value ([6]; Low QC (15 ng/mL), −20 °C, 24h) was −1.8%. The “Stability (% difference)” value ([6]; Low QC (15 ng/mL), −20 °C, 72h) was −12.6%, the “post mortem whole blood concentration” value ([1]; Case 1, fatal, only psychoactive analyte detected) was 170 ng/mL and the serum concentration ([1]; Case 2, recovered by 12 h) was 7 ng/mL. The serum concentration [1, 8] was 19 ng/mL, the serum concentration ([1]; Case 5, coma, cerebrovascular hemorrhage) was 149 ng/mL and the serum concentration ([1]; Case 6, psychosis) was 61 ng/mL. The “symptoms of intoxicated subjects” value ([7]; 6 human cases) was “palpitations, tachycardia, agitation, aggression, hallucinations, coma and, in one case, death”, the “heart rate (tachycardia)” value ([7]; Case 2, at ED) was 176 bpm and the Potassium ([7]; Case 3) was 3.6 mEq/L. The aspartame aminotransferase ([7]; Case 3) was 93 U/L, the alanine aminotransferase ([7]; Case 3) was 35 U/L and the BUN ([7]; Case 3) was 14 mg/dL. The Sodium ([7]; Case 3) was 140 mEq/L, the phosphatase alkaline ([7]; Case 3, reference Adult 50 - 136) was 53 U/L and the blood pressure ([7]; Case 4, described as normal) was 123/89. For the same molecule, the Potassium ([7]; Case 4) was 3.4 mEq/L, the “creatine kinase MB isoenzyme” value ([7]; Case 4, reference 7 - 25) was 21 U/L and the pH ([7]; Case 4) was 7.46. It also gave an aspartame aminotransferase ([7]; Case 4) of 40 U/L, an alanine aminotransferase ([7]; Case 4) of 25 U/L and a BUN ([7]; Case 4) of 14 mg/dL. The HCO3 ([7]; Case 4) was 20.5 mmol/L, the pCO2 ([7]; Case 4) was 29.4 mmHg and the Glucose ([7]; Case 4) was 104 mg/dL. It also gave a pO2 ([7]; Case 4) of 72.5 mmHg, a Sodium ([7]; Case 4) of 137 mEq/L and a serum creatinine ([7]; Case 4) of 0.9 mg/dL. It also gave a Hb ([7]; Case 4) of 15.5 g/dL, a Hematocrit ([7]; Case 4) of 43.0% and a creatine kinase ([7]; Case 4) of 605 U/L. The base excess ([7]; Case 4) was -1.6 mmol/L, the “Glasgow score (neurological depression)” value ([7]; Case 5) was 5 and the Lactate ([7]; Case 5, reference 0.5 - 1.6) was 11.0 mmol/L. It also gave a Magnesium ([7]; Case 5, reference 1.6 - 2.4) of 1.6 mg/dL, a Potassium ([7]; Case 5) of 3.7 mEq/L and a pH ([7]; Case 5) of 7.41. The BUN ([7]; Case 5) was 28 mg/dL, the HCO3 ([7]; Case 5) was 19 mmol/L and the pCO2 ([7]; Case 5) was 31 mmHg. For the same molecule, the pO2 ([7]; Case 5) was 86 mmHg, the Sodium ([7]; Case 5) was 137 mEq/L and the serum creatinine ([7]; Case 5) was 0.7 mg/dL. For the same molecule, the Hb ([7]; Case 5) was 13.0 g/dL, the Hematocrit ([7]; Case 5) was 43.0% and the creatine kinase ([7]; Case 5) was 1,260 U/L. For the same molecule, the base excess ([7]; Case 5) was -3.8 mmol/L, the Potassium ([7]; Case 6) was 3.8 mEq/L and the aspartame aminotransferase ([7]; Case 6) was 24 U/L. The alanine aminotransferase ([7]; Case 6) was 27 U/L, the BUN ([7]; Case 6) was 31 mg/dL and the Glucose ([7]; Case 6) was 101 mg/dL. The Sodium ([7]; Case 6) was 137 mEq/L, the serum creatinine ([7]; Case 6) was 0.7 mg/dL and the Hb ([7]; Case 6) was 13.0 g/dL. The Hematocrit ([7]; Case 6) was 39.9% and the creatine kinase ([7]; Case 6) was 713 U/L.
